# Patent US20260008768A1, “UREA DERIVATIVES FOR INHIBITING NLRP3 AND USES THEREOF” (VENTUS THERAPEUTICS U.S., INC., priority 2023, published 2026)
# pIC50: −log10 of the molar value.
# Biological target: human NLRP3 (Homo sapiens, UniProt Q96P20)
# Test: Scintillation Proximity (SPA) NLRP3 Assay, displacement of 3H-MCC950
# Assay type: binding
# Conditions: displacement of 3H-MCC950 from human NLRP3
# Method in brief: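 Human NLRP3 (350 nM) preincubated 15 min at RT with compound (5% DMSO final) in HEPES pH 7.5 buffer with 100 μM ADP, then 125 nM 3H-MCC950 added for 60 min. Copper PVT SPA beads added; counts read 6 h later. Specific binding = signal minus no-protein wells, duplicates averaged; IC50 reported.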
# human NLRP3, sequence (Q96P20 whole entry): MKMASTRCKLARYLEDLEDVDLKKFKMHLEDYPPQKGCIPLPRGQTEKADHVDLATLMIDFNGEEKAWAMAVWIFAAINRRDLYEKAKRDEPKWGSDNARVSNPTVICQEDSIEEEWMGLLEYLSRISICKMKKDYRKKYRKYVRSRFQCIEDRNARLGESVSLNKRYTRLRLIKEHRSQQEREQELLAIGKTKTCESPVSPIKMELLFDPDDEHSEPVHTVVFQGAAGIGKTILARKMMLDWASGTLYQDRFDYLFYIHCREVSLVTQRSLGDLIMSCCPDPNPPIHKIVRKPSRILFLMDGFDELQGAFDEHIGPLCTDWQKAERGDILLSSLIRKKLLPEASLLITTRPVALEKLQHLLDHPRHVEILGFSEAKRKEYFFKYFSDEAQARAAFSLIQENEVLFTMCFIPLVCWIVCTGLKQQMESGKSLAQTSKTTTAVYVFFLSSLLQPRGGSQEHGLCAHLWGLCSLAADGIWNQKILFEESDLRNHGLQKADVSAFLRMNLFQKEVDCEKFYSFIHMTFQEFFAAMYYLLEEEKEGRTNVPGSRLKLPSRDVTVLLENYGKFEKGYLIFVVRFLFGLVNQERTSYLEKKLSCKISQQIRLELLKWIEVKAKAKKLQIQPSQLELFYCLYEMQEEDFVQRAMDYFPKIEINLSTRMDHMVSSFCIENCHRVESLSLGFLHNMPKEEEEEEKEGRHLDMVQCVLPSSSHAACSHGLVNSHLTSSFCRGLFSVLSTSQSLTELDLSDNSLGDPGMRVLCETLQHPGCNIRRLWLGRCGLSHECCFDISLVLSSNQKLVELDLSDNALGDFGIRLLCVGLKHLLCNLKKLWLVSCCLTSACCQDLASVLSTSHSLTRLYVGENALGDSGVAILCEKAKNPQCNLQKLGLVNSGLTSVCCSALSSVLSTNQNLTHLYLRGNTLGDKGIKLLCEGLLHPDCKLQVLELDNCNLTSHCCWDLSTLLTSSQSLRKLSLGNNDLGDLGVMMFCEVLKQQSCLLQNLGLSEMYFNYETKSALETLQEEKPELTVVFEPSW
pIC50 (Table C),Structure (SMILES),"pIC50 (Table B, activity class)"
,"C[C@H]1C[C@H](NC(=O)N(C)c2ccc(C3CC3)c(F)c2)[C@@H]2CC[C@H]1N2c1nnn[nH]1 (single isomer, unassigned) [54D*]",4.30 to 5.00
,"C[C@@H]1C[C@H](NC(=O)N(C)c2ccc(C(F)F)cc2F)[C@H]2CC[C@@H]1N2c1nnn[nH]1 (single isomer, unassigned) [55B*]",< 4.00
,"C[C@H]1C[C@@H](NC(=O)N(C)c2ccc(C(F)F)cc2F)[C@@H]2CC[C@H]1N2c1nnn[nH]1 (single isomer, unassigned) [55C*]",4.00 to 4.30
,"C[C@H]1C[C@H](NC(=O)N(C)c2ccc(C(F)F)cc2F)[C@@H]2CC[C@H]1N2c1nnn[nH]1 (single isomer, unassigned) [55D*]",4.30 to 5.00
,"C[C@@H]1C[C@H](NC(=O)N(C)c2ccc(OC(F)(F)F)cc2F)[C@H]2CC[C@@H]1N2c1nnn[nH]1 (single isomer, unassigned) [56B*]",< 4.00
,"C[C@H]1C[C@@H](NC(=O)N(C)c2ccc(OC(F)(F)F)cc2F)[C@@H]2CC[C@H]1N2c1nnn[nH]1 (single isomer, unassigned) [56C*]",4.00 to 4.30
,"C[C@H]1C[C@H](NC(=O)N(C)c2ccc(OC(F)(F)F)cc2F)[C@@H]2CC[C@H]1N2c1nnn[nH]1 (single isomer, unassigned) [56D*]",5.00 to 6.00
,"C[C@@H]1C[C@H](NC(=O)N(C)c2ccc(OC(F)F)cc2F)[C@H]2CC[C@@H]1N2c1nnn[nH]1 (single isomer, unassigned) [57B*]",< 4.00
,"C[C@H]1C[C@@H](NC(=O)N(C)c2ccc(OC(F)F)cc2F)[C@@H]2CC[C@H]1N2c1nnn[nH]1 (single isomer, unassigned) [57C*]",4.00 to 4.30
,"C[C@H]1C[C@H](NC(=O)N(C)c2ccc(OC(F)F)cc2F)[C@@H]2CC[C@H]1N2c1nnn[nH]1 (single isomer, unassigned) [57D*]",5.00 to 6.00
,"C[C@@H]1C[C@H](NC(=O)N(C)c2ccc(OC(F)F)c(F)c2F)[C@H]2CC[C@@H]1N2c1nnn[nH]1 (single isomer, unassigned) [58B*]",< 4.00
,"C[C@H]1C[C@@H](NC(=O)N(C)c2ccc(OC(F)F)c(F)c2F)[C@@H]2CC[C@H]1N2c1nnn[nH]1 (single isomer, unassigned) [58C*]",4.00 to 4.30
,"C[C@H]1C[C@H](NC(=O)N(C)c2ccc(OC(F)F)c(F)c2F)[C@@H]2CC[C@H]1N2c1nnn[nH]1 (single isomer, unassigned) [58D*]",4.30 to 5.00
,"C[C@@H]1C[C@H](NC(=O)N(C)c2ccc(OC(F)(F)F)c(F)c2F)[C@H]2CC[C@@H]1N2c1nnn[nH]1 (single isomer, unassigned) [59B*]",4.00 to 4.30
,"C[C@H]1C[C@@H](NC(=O)N(C)c2ccc(OC(F)(F)F)c(F)c2F)[C@@H]2CC[C@H]1N2c1nnn[nH]1 (single isomer, unassigned) [59C*]",< 4.00
,"C[C@H]1C[C@H](NC(=O)N(C)c2ccc(OC(F)(F)F)c(F)c2F)[C@@H]2CC[C@H]1N2c1nnn[nH]1 (single isomer, unassigned) [59D*]",4.30 to 5.00
,"C[C@@H]1C[C@H](NC(=O)N(C)c2c(F)cc(C3CC3)cc2F)[C@H]2CC[C@@H]1N2c1nnn[nH]1 (single isomer, unassigned) [60B*]",< 4.00
,"C[C@H]1C[C@@H](NC(=O)N(C)c2c(F)cc(C3CC3)cc2F)[C@@H]2CC[C@H]1N2c1nnn[nH]1 (single isomer, unassigned) [60C*]",4.00 to 4.30
,"C[C@H]1C[C@H](NC(=O)N(C)c2c(F)cc(C3CC3)cc2F)[C@@H]2CC[C@H]1N2c1nnn[nH]1 (single isomer, unassigned) [60D*]",5.00 to 6.00
,"C[C@@H]1C[C@H](NC(=O)N(C)c2c(F)cc(OC(F)F)cc2F)[C@H]2CC[C@@H]1N2c1nnn[nH]1 (single isomer, unassigned) [61B*]",< 4.00

pIC50 (Table C),Structure (SMILES),"pIC50 (Table B, activity class)"
,"C[C@H]1C[C@@H](NC(=O)N(C)c2c(F)cc(OC(F)F)cc2F)[C@@H]2CC[C@H]1N2c1nnn[nH]1 (single isomer, unassigned) [61C*]",< 4.00
,"C[C@H]1C[C@H](NC(=O)N(C)c2c(F)cc(OC(F)F)cc2F)[C@@H]2CC[C@H]1N2c1nnn[nH]1 (single isomer, unassigned) [61D*]",4.30 to 5.00
,"C[C@@H]1C[C@H](NC(=O)N(C)c2c(F)cc(OC(F)(F)F)cc2F)[C@H]2CC[C@@H]1N2c1nnn[nH]1 (single isomer, unassigned) [62B*]",< 4.00
,"C[C@H]1C[C@@H](NC(=O)N(C)c2c(F)cc(OC(F)(F)F)cc2F)[C@@H]2CC[C@H]1N2c1nnn[nH]1 (single isomer, unassigned) [62C*]",4.00 to 4.30
,"C[C@H]1C[C@H](NC(=O)N(C)c2c(F)cc(OC(F)(F)F)cc2F)[C@@H]2CC[C@H]1N2c1nnn[nH]1 (single isomer, unassigned) [62D*]",4.00 to 4.30
,"C[C@@H]1C[C@H](NC(=O)N(C)c2ccc(OC(F)(F)F)c(OC(F)F)c2)[C@H]2CC[C@@H]1N2c1nnn[nH]1 (single isomer, unassigned) [63B*]",< 4.00
,"C[C@H]1C[C@@H](NC(=O)N(C)c2ccc(OC(F)(F)F)c(OC(F)F)c2)[C@@H]2CC[C@H]1N2c1nnn[nH]1 (single isomer, unassigned) [63C*]",4.00 to 4.30
,"C[C@H]1C[C@H](NC(=O)N(C)c2ccc(OC(F)(F)F)c(OC(F)F)c2)[C@@H]2CC[C@H]1N2c1nnn[nH]1 (single isomer, unassigned) [63D*]",4.00 to 4.30
,"C[C@@H]1C[C@H](NC(=O)N(C)c2ccc(OC(F)F)c(OC(F)F)c2)[C@H]2CC[C@@H]1N2c1nnn[nH]1 (single isomer, unassigned) [64B*]",< 4.00
,"C[C@H]1C[C@@H](NC(=O)N(C)c2ccc(OC(F)F)c(OC(F)F)c2)[C@@H]2CC[C@H]1N2c1nnn[nH]1 (single isomer, unassigned) [64C*]",< 4.00
,"C[C@H]1C[C@H](NC(=O)N(C)c2ccc(OC(F)F)c(OC(F)F)c2)[C@@H]2CC[C@H]1N2c1nnn[nH]1 (single isomer, unassigned) [64D*]",5.00 to 6.00
,"CCN(C(=O)N[C@H]1C[C@H](C)[C@H]2CC[C@@H]1N2c1nnn[nH]1)c1ccc(OC(F)F)cc1F (single isomer, unassigned) [65D*]",4.30 to 5.00
,"O=C(N[C@@H]1CCCN(c2nnn[nH]2)C1)N(c1ccc(Cl)cc1)C1CC1 [Compound 3A, (R)-3-(1-(1H-tetrazol-5-yl)piperidin-3-yl)-1-(4-chlorophenyl)-1-cyclopropylurea]",< 4.00
,"C[C@H]1CCN(c2nnn[nH]2)C[C@@H](NC(=O)N(C)c2ccc(C(F)(F)F)c(F)c2)C1 [Compound 9D, 1-(3-fluoro-4-(trifluoromethyl)phenyl)-1-methyl-3-((3S,5S)-5-methyl-1-(1H-tetrazol-5-yl)azepan-3-yl)urea]",5.00 to 6.00
,"C[C@H]1C[C@@H](NC(=O)N(C)c2ccc3ocnc3c2)CN(c2nnn[nH]2)C1 [Compound 34A, 1-(benzo[d]oxazol-5-yl)-1-methyl-3-((3R,5S)-5-methyl-1-(1H-tetrazol-5-yl)piperidin-3-yl)urea]",4.00 to 4.30
,"C[C@H]1C[C@@H](NC(=O)N(C)c2ccc3ncoc3c2)CN(c2nnn[nH]2)C1 [Compound 35A, 1-(benzo[d]oxazol-6-yl)-1-methyl-3-((3R,5S)-5-methyl-1-(1H-tetrazol-5-yl)piperidin-3-yl)urea]",4.30 to 5.00
,"C[C@H]1C[C@@H](NC(=O)N(C)c2ccc3ccnn3c2)CN(c2nnn[nH]2)C1 [Compound 36A, 1-methyl-3-((3R,5S)-5-methyl-1-(1H-tetrazol-5-yl)piperidin-3-yl)-1-(pyrazolo[1,5-a]pyridin-6-yl)urea]",< 4.00
,"C[C@H]1C[C@@H](NC(=O)N(C)c2ccc3nccn3c2)CN(c2nnn[nH]2)C1 [Compound 37A, 1-(imidazo[1,2-a]pyridin-6-yl)-1-methyl-3-((3R,5S)-5-methyl-1-(1H-tetrazol-5-yl)piperidin-3-yl)urea]",< 4.00
,"C[C@H]1C[C@@H](NC(=O)N(C)c2ccc3cnoc3c2)CN(c2nnn[nH]2)C1 [Compound 38A, 1-(benzo[d]isoxazol-6-yl)-1-methyl-3-((3R,5S)-5-methyl-1-(1H-tetrazol-5-yl)piperidin-3-yl)urea]",4.30 to 5.00
6.09,"C[C@H]1C[C@@H](NC(=O)N(C)c2ccc(OC(F)F)cc2)CN(c2nnn[nH]2)C1 [Compound 39A, 1-(4-(difluoromethoxy)phenyl)-1-methyl-3-((3R,5S)-5-methyl-1-(1H-tetrazol-5-yl)piperidin-3-yl)urea]",> 6.00
